Assay results as given in patent publication US10456365B2, “Methods and formulations for supporting and promoting bone health” (Primus Pharmaceuticals, Inc., priority 2016, dated 2019).

What was measured:
Format in all cases: cell-based, mouse (C57BL/6)
[1] = tested on: differentiation of bone marrow cells to adipocytes; assay: Adipogenesis in bone marrow cell culture
Description: C57BL/6 cells were prepared as 1×10^6/ml per well. These cells were cultured using 12-well plates in DMEM containing 10% FBS, 1% penicillin-steptomycin in the presence or absence of dexamethasone (1 μM/ml) and 3-isobutyl-q-methylxanthine (0.5 mM/ml) with either vehicle or β-Caryophyllene (0.1-100 μM). Medium was replaced containing insulin (10 μg/ml) without dexamethasone and 3-isobutyl-q-methylxanthine, with either the presence or absence of β-Caryophyllene (0.1-100 μM) for four days in CO2 incubator (37° C.). In other experiments, the cells were cultured without β-Caryophyllene for an additional four days. After culture, the adipocytes were stained and counted.
Bone marrow cells (1×10^6 cells/well/ml in 12-well plates) were cultured for 3 days in DMEM containing 10% FBS, 1% penicillin-streptomycin (P/S; 10,000 U/L) in the presence or absence of the differentiation medium (DM) [dexamethasone (1 μM/ml of medium) and 3-isobutyl-1-methylxanthine (IBMX; 0.5 mM/ml of medium)] with either vehicle or β-caryophyllene (0.1-100 μM). […] After culture, the medium was removed, and adipocytes were stained with Oil Red O. Adipocytes were counted by light microscopy. For quantification, the dye was extracted with 0.2 ml of isopropanol for 1 minute, and the absorbance (490 nm) was read using a Spectra Count microplate photometer.

[2] = tested on: osteoblastic mineralization; assay: Mineralization in bone marrow culture
Description: C57BL/6 cells were prepared as 1×10^6/ml per well in 12-well plates. Cells were cultured in either the presence or absence of DMEM with mineralization medium containing ascorbic acid (100 μg/ml) and 4 mM β-glycerophosphate in DMEM with 10% FBS and 1% penicillin-steptomycin. […] After culture, the cells were washed and stained. After elution with 10% cetylpyridinium chloride solution, the absorbance at 570 nm on a microtiter plate reader.

osteoclastogenesis = assay: Osteoclastogenesis in bone marrow cell culture
Description: C57BL/6 cells were prepared as 2×10^5/ml per well in 24-well plates. Cells were cultured in DMEM with 10% FBS and 1% penicillin-steptomycin in water-saturated atmosphere containing 5% CO2 and 95% air at 37° C. Cells were cultured with or without Tumor necrosis factor-α (5 ng/ml) for 3 days in the presence or absence of β-Caryophyllene (0.1-100 μM). Medium was replaced and cultures were maintained for an additional 4 days. In other experiments, the cells were cultured for 3 days and then placed in medium without β-Caryophyllene for an additional 4 days. Cells were stained with a marker enzyme of osteoclasts and washed with phosphate buffered sale solution and foxed with 10% neutralized formalin-phosphate for 10 minutes. The cells were stained with TRACP staining and incubated for 90 minutes. TRACP—positive cells containing three or more nuclei were counted as osteoclast-like cells.

C=C1CC/C=C(\C)CC[C@@H]2[C@@H]1CC2(C)C [β-Caryophyllene]
differentiation of bone marrow cells to adipocytes ([1]; 0.1-100 μM, 7 days, differentiation medium with or without insulin (FIG. 1)): suppressed differentiation of from bone marrow cells to adipocytes | differentiation of bone marrow cells to adipocytes ([1]; C57BL/6 cells cultured for 7 days with or without β-Caryophyllene): suppressed differentiation of bone marrow cells to adipocytes | osteoblastic mineralization ([2]; 18 days, mineralization medium): stimulated osteoblastic mineralization | osteoblastic mineralization ([2]; β-Caryophyllene for 7 days, then medium without it for additional 11 days): Stimulation was also seen | osteoclastogenesis (osteoclastogenesis; 7 days, medium containing Tumor necrosis factor-α): suppressed osteoclastogenesis | osteoclastogenesis (osteoclastogenesis; cultured in Tumor necrosis factor-α with β-Caryophyllene, then without β-Caryophyllene for additional 4 days): also exhibited suppression of osteoclastogenesis
